# US8852554B2, “Radiolabelled PDE10 ligands” (Janssen Pharmaceutica NV, priority 2009, dated 2014)
# Where “and” joins values, the source holds several entries; their conditions need not be identical. Equal entries are not always repeated.
# Test: Biodistribution studies of the 18F tracers in rats
# Assay type: in vivo, male Wistar rats
# Settings: rat, i.v.
# Method: Biodistribution studies were carried out in healthy male Wister rats (body weight 200-500 g) at 2 min, 30 min and 60 min post injection (p.i.) (n=3/time point). For |^18F|B-4 only the 2 min and 30 min time points were studied. […] Blood and major organs were collected in tared tubes and weighed. The radioactivity in blood, organs and other body parts was measured using an automated gamma counter. The distribution of radioactivity in different parts of the body at different time points p.i. of the tracer was calculated and expressed as percentage of injected dose (% ID), and as percentage of injected dose per gram tissue (% ID/g) for the selected organs. % ID is calculated as cpm in organ/total cpm recovered. For calculation of total radioactivity in blood, blood mass was assumed to be 7% of the body mass.
compound,measurement,setting,value
Cc1cccc(COc2ccc(-c3nn(CC[18F])cc3-c3ccncc3)cc2)n1 [[^18F]B-1],"% ID/g normalized for body weight, Cerebellum",30 min p.i.,0.041 ± 0.01 % ID/g × body wt. in kg
same,"% ID/g normalized for body weight, Cerebrum + Cerebellum",30 min p.i.,0.04 ± 0.01 % ID/g × body wt. in kg
same,"% ID/g normalized for body weight, Cerebrum total",30 min p.i.,0.042 ± 0.01 % ID/g × body wt. in kg
same,"% ID/g normalized for body weight, Cortex",30 min p.i.,0.057 ± 0.01 % ID/g × body wt. in kg
same,"% ID/g normalized for body weight, Heart",30 min p.i.,0.07 ± 0.01 % ID/g × body wt. in kg
same,"% ID/g normalized for body weight, Hippocampus",30 min p.i.,0.027 ± 0.01 % ID/g × body wt. in kg
same,"% ID/g normalized for body weight, Kidneys",30 min p.i.,0.17 ± 0.01 % ID/g × body wt. in kg
same,"% ID/g normalized for body weight, Liver",30 min p.i.,1.02 ± 0.13 % ID/g × body wt. in kg
same,"% ID/g normalized for body weight, Lungs",30 min p.i.,0.08 ± 0.02 % ID/g × body wt. in kg
same,"% ID/g normalized for body weight, Rest of cerebrum",30 min p.i.,0.039 ± 0.01 % ID/g × body wt. in kg
same,"% ID/g normalized for body weight, Spleen + Pancreas",30 min p.i.,0.11 ± 0.02 % ID/g × body wt. in kg
same,"% ID/g normalized for body weight, Striatum",30 min p.i.,0.070 ± 0.01 % ID/g × body wt. in kg
same,"% ID/g, Blood",30 min p.i.,0.12 ± 0.01 % ID/g
same,"% ID/g, Cerebellum",30 min p.i.,0.145 ± 0.020 % ID/g
same,"% ID/g, Cerebrum + Cerebellum",30 min p.i.,0.15 ± 0.02 % ID/g
same,"% ID/g, Cerebrum total",30 min p.i.,0.148 ± 0.014 % ID/g
same,"% ID/g, Cortex",30 min p.i.,0.204 ± 0.016 % ID/g
same,"% ID/g, Heart",30 min p.i.,0.24 ± 0.03 % ID/g
same,"% ID/g, Hippocampus",30 min p.i.,0.096 ± 0.012 % ID/g
same,"% ID/g, Kidneys",30 min p.i.,0.61 ± 0.11 % ID/g
same,"% ID/g, Liver",30 min p.i.,3.72 ± 0.87 % ID/g
same,"% ID/g, Lungs",30 min p.i.,0.27 ± 0.04 % ID/g
same,"% ID/g, Rest of cerebrum",30 min p.i.,0.138 ± 0.013 % ID/g
same,"% ID/g, Spleen + Pancreas",30 min p.i.,0.39 ± 0.04 % ID/g
same,"% ID/g, Striatum",30 min p.i.,0.250 ± 0.029 % ID/g
same,"radioactivity concentration, all studied brain regions",30 min p.i.,≤ 0.07 % ID/g corrected for body weight
same,striatum/blood ratio (from % ID/g normalized for body weight),30 min p.i.,2.05
same,striatum/cerebellum ratio (from % ID/g normalized for body weight),30 min p.i.,1.72
same,striatum/hippocampus ratio (from % ID/g normalized for body weight),30 min p.i.,2.59
same,% ID in liver and intestines,60 min p.i.,54 % ID
same,% ID in the urinary system,60 min p.i.,~2.6 % ID
same,"% ID, Blood",60 min p.i.,2.2 % ID and 2.16 ± 0.4 % ID
same,"% ID, Carcass",60 min p.i.,23.68 ± 3.9 % ID
same,"% ID, Cerebellum",60 min p.i.,0.023 ± 0.005 % ID
same,"% ID, Cerebrum total",60 min p.i.,0.145 ± 0.032 % ID
same,"% ID, Cortex",60 min p.i.,0.018 ± 0.004 % ID
same,"% ID, Heart",60 min p.i.,0.16 ± 0.0 % ID
same,"% ID, Hippocampus",60 min p.i.,0.005 ± 0.001 % ID
same,"% ID, Intestines",60 min p.i.,19.61 ± 1.5 % ID
same,"% ID, Kidneys",60 min p.i.,1.38 ± 0.1 % ID
same,"% ID, Liver",60 min p.i.,34.49 ± 8.0 % ID
same,"% ID, Lungs",60 min p.i.,0.26 ± 0.1 % ID
same,"% ID, Rest of cerebrum",60 min p.i.,0.116 ± 0.027 % ID
same,"% ID, Spleen + Pancreas",60 min p.i.,0.43 ± 0.1 % ID
same,"% ID, Stomach",60 min p.i.,17 % ID and 16.74 ± 4.6 % ID
same,"% ID, Striatum",60 min p.i.,0.006 ± 0.002 % ID
same,"% ID, Urine",60 min p.i.,1.22 ± 0.2 % ID
same,"% ID/g normalized for body weight, Blood",60 min p.i.,0.03 ± 0.01 % ID/g × body wt. in kg
same,"% ID/g normalized for body weight, Cerebellum",60 min p.i.,0.025 ± 0.01 % ID/g × body wt. in kg
same,"% ID/g normalized for body weight, Cerebrum + Cerebellum",60 min p.i.,0.03 ± 0.01 % ID/g × body wt. in kg
same,"% ID/g normalized for body weight, Cerebrum total",60 min p.i.,0.033 ± 0.01 % ID/g × body wt. in kg
same,"% ID/g normalized for body weight, Cortex",60 min p.i.,0.036 ± 0.01 % ID/g × body wt. in kg
same,"% ID/g normalized for body weight, Heart",60 min p.i.,0.05 ± 0.01 % ID/g × body wt. in kg
same,"% ID/g normalized for body weight, Hippocampus",60 min p.i.,0.023 ± 0.02 % ID/g × body wt. in kg
same,"% ID/g normalized for body weight, Kidneys",60 min p.i.,0.15 ± 0.01 % ID/g × body wt. in kg
same,"% ID/g normalized for body weight, Liver",60 min p.i.,0.81 ± 0.13 % ID/g × body wt. in kg
same,"% ID/g normalized for body weight, Lungs",60 min p.i.,0.05 ± 0.02 % ID/g × body wt. in kg
same,"% ID/g normalized for body weight, Rest of cerebrum",60 min p.i.,0.034 ± 0.01 % ID/g × body wt. in kg
same,"% ID/g normalized for body weight, Spleen + Pancreas",60 min p.i.,0.08 ± 0.02 % ID/g × body wt. in kg
same,"% ID/g normalized for body weight, Striatum",60 min p.i.,0.051 ± 0.01 % ID/g × body wt. in kg
same,"% ID/g, Blood",60 min p.i.,0.10 ± 0.02 % ID/g
same,"% ID/g, Cerebellum",60 min p.i.,0.079 ± 0.021 % ID/g
same,"% ID/g, Cerebrum + Cerebellum",60 min p.i.,0.10 ± 0.03 % ID/g
same,"% ID/g, Cerebrum total",60 min p.i.,0.105 ± 0.035 % ID/g
same,"% ID/g, Cortex",60 min p.i.,0.113 ± 0.031 % ID/g
same,"% ID/g, Heart",60 min p.i.,0.15 ± 0.04 % ID/g
same,"% ID/g, Hippocampus",60 min p.i.,0.074 ± 0.050 % ID/g
same,"% ID/g, Kidneys",60 min p.i.,0.46 ± 0.02 % ID/g
same,"% ID/g, Liver",60 min p.i.,2.53 ± 0.23 % ID/g
same,"% ID/g, Lungs",60 min p.i.,0.16 ± 0.05 % ID/g
same,"% ID/g, Rest of cerebrum",60 min p.i.,0.107 ± 0.030 % ID/g
same,"% ID/g, Spleen + Pancreas",60 min p.i.,0.26 ± 0.07 % ID/g
same,"% ID/g, Striatum",60 min p.i.,0.162 ± 0.042 % ID/g
same,striatum/blood ratio (from % ID/g normalized for body weight),60 min p.i.,1.66
same,striatum/cerebellum ratio (from % ID/g normalized for body weight),60 min p.i.,2.06
same,striatum/hippocampus ratio (from % ID/g normalized for body weight),60 min p.i.,2.24
same,% ID in the carcass,at all time points examined,~28 % ID
same,maximum striatum-to-cerebellum ratio,biodistribution 2-60 min p.i.,about 2
